Several values for one entry are separate records, joined by “and”; a condition that tells them apart may be missing. Identical values can stand only once. Inconclusive results and toxic doses are left out.
Tested on: P388 leukemia ip, CD2F1 mice, survival T/C
Assay: NCI In Vivo Anticancer Drug Screen. Data for tumor model P388 Leukemia (intraperitoneal) in CD2F1 (CDF1) mice
Conditions: endpoint: median survival time, higher = longer survival
How it was run: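 Mice carrying the transplanted tumor received test compound or vehicle. Survival was recorded in each group, and the value is the treated-group measurement divided by that of the vehicle-treated control group.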

[1] = dose: 50.0 mg/kg/injection, schedule: Q01DX005 (ip), vehicle: Klucel (hydroxypropylcellulose) (HPC)
[2] = dose: 100.0 mg/kg/injection, schedule: Q01DX005 (ip), vehicle: Klucel (hydroxypropylcellulose) (HPC)
[3] = dose: 200.0 mg/kg/injection, schedule: Q01DX005 (ip), vehicle: Klucel (hydroxypropylcellulose) (HPC)

COc1ccc(OC)c(CCc2cc(OC)ccc2OC)c1
T/C (dose: 0.78 mg/kg/injection, schedule: Q01DX009 (ip), vehicle: DMSO): 88 % of control | T/C (dose: 6.25 mg/kg/injection, schedule: Q01DX009 (ip), vehicle: DMSO): 92 % of control | T/C (dose: 25.0 mg/kg/injection, schedule: Q01DX009 (ip), vehicle: DMSO): 94 % of control | T/C (dose: 50.0 mg/kg/injection, schedule: Q01DX009 (ip), vehicle: DMSO): 109 % of control

C=CCNC(=S)NNC(=O)Cc1nc2ccccc2[nH]1
T/C [1]: 98 % of control | T/C [2]: 97 % of control | T/C [3]: 92 % of control

COc1cc(Br)c(CC(NC=O)c2ccc3c(c2)OCO3)cc1OC (configuration not stated)
T/C (dose: 15.0 mg/kg/injection, schedule: Q01DX005 (ip), vehicle: saline with Tween-80): 107 % of control | T/C (dose: 30.0 mg/kg/injection, schedule: Q01DX005 (ip), vehicle: saline with Tween-80): 104 % of control | T/C (dose: 60.0 mg/kg/injection, schedule: Q01DX005 (ip), vehicle: saline with Tween-80): 89 % of control and 94 % of control

OCC#C[C@@H]1CC[C@H]1C#CCO
T/C [1]: 100 % of control | T/C [2]: 103 % of control | T/C [3]: 103 % of control

NC(=O)C1OC(n2cnc3c(N)ncnc32)C(O)C1O (configuration not stated)
T/C (dose: 1.56 mg/kg/injection, schedule: Q01DX005 (ip), vehicle: saline with Tween-80): 100 % of control and 104 % of control | T/C (dose: 3.13 mg/kg/injection, schedule: Q01DX005 (ip), vehicle: saline with Tween-80): 105 % of control and 114 % of control | T/C (dose: 6.25 mg/kg/injection, schedule: Q01DX005 (ip), vehicle: saline with Tween-80): 109 % of control and 115 % of control and 121 % of control

Cc1noc2c1N=C(c1ccccc1O)CC(c1ccccc1)C2 (configuration not stated)
T/C (dose: 50.0 mg/kg/injection, schedule: Q01DX009 (ip), vehicle: Klucel (hydroxypropylcellulose) (HPC)): 100 % of control | T/C (dose: 100.0 mg/kg/injection, schedule: Q01DX009 (ip), vehicle: Klucel (hydroxypropylcellulose) (HPC)): 110 % of control | T/C (dose: 200.0 mg/kg/injection, schedule: Q01DX009 (ip), vehicle: Klucel (hydroxypropylcellulose) (HPC)): 99 % of control

CNC(=O)OCCC(OC(=O)NC)C1CCC2C3CCC4CC(OC(=O)NC)CCC4(C)C3CCC12C (configuration not stated)
T/C (dose: 100.0 mg/kg/injection, schedule: Q01DX001 (ip), vehicle: Klucel (hydroxypropylcellulose) (HPC)): 108 % of control | T/C (dose: 200.0 mg/kg/injection, schedule: Q01DX001 (ip), vehicle: Klucel (hydroxypropylcellulose) (HPC)): 108 % of control | T/C (dose: 400.0 mg/kg/injection, schedule: Q01DX001 (ip), vehicle: Klucel (hydroxypropylcellulose) (HPC)): 101 % of control

C=CCSc1n[nH]c(-c2cccs2)n1
T/C (dose: 30.0 mg/kg/injection, schedule: Q01DX005 (ip), vehicle: Klucel (hydroxypropylcellulose) (HPC)): 104 % of control | T/C (dose: 60.0 mg/kg/injection, schedule: Q01DX005 (ip), vehicle: Klucel (hydroxypropylcellulose) (HPC)): 109 % of control | T/C (dose: 120.0 mg/kg/injection, schedule: Q01DX005 (ip), vehicle: Klucel (hydroxypropylcellulose) (HPC)): 109 % of control | T/C (dose: 240.0 mg/kg/injection, schedule: Q01DX005 (ip), vehicle: Klucel (hydroxypropylcellulose) (HPC)): 109 % of control

O=C(CC(=O)c1ccccc1)Nc1ccc(-c2nc3ccccc3c(=O)[nH]2)cc1
T/C (dose: 50.0 mg/kg/injection, schedule: Q01DX009 (ip), vehicle: saline + alcohol): 97 % of control | T/C (dose: 100.0 mg/kg/injection, schedule: Q01DX009 (ip), vehicle: saline + alcohol): 92 % of control | T/C (dose: 200.0 mg/kg/injection, schedule: Q01DX009 (ip), vehicle: saline + alcohol): 94 % of control

NC(Cc1ccc(O)cc1)C(=O)N/N=C/c1cccc2ccccc12 (configuration not stated)
T/C (dose: 50.0 mg/kg/injection, schedule: Q01DX005 (ip), vehicle: saline with Tween-80): 92 % of control | T/C (dose: 100.0 mg/kg/injection, schedule: Q01DX005 (ip), vehicle: saline with Tween-80): 90 % of control | T/C (dose: 200.0 mg/kg/injection, schedule: Q01DX005 (ip), vehicle: saline with Tween-80): 89 % of control

ClCCN(CCCl)c1ccc(CNCCCNCc2ccc(N(CCCl)CCCl)cc2)cc1
T/C (dose: 2.5 mg/kg/injection, schedule: Q01DX009 (ip), vehicle: saline sonified): 152 % of control | T/C (dose: 5.0 mg/kg/injection, schedule: Q01DX009 (ip), vehicle: saline sonified): 95 % of control

CC(NC(=O)C(Cc1cnc[nH]1)NC(=O)OCc1ccccc1)C(=O)O (configuration not stated)
T/C [1]: 96 % of control | T/C [2]: 96 % of control | T/C [3]: 96 % of control

From PubChem BioAssay AID330 (DTP/NCI, 2004)
